Test: logP determination by HPLC on reverse-phase column (C 18), EEC directive 79/831 Annex V.A8
Assay type: physicochemical
Protocol: In the acidic range, the determination is carried out at pH 2.3 using the mobile phases 0.1% aqueous phosphoric acid and acetonitrile; linear gradient from 10% acetonitrile to 90% acetonitrile.
In the neutral range, the determination is carried out at pH 7.5 using the mobile phases 0.01 molar aqueous phosphate buffer solution and acetonitrile; linear gradient from 10% acetonitrile to 90% acetonitrile.

[1] = reverse-phase HPLC column (C 18), pH 2.3, acidic range, pH 2.3; 0.1% aqueous phosphoric acid/acetonitrile gradient; 43° C.; values marked a)
[2] = reverse-phase HPLC column (C 18), pH 7.5, neutral range, pH 7.5; 0.01 molar aqueous phosphate buffer/acetonitrile gradient; 43° C.; values marked b)
[3] = acidic range, pH 2.3; 0.1% aqueous phosphoric acid/acetonitrile gradient; 43° C.; values marked a)

| Compound | chromatographic logP [1] | chromatographic logP [2] | also measured |
| --- | --- | --- | --- |
| Clc1ccc(C2=NC(c3ccc(Br)cc3)CC2)cc1 (stereo not shown) [Example 92] | 2.17 | – | – |
| Fc1cccc(F)c1C1=NC(c2ccc(OCc3ccc(OC(F)(F)F)cc3)cc2)CC1 (stereo not shown) [Example 109] | 3.61 | – | – |
| FC(F)(F)Oc1ccc(-c2ccc(C3CCC(c4ccccc4C(F)(F)F)=N3)cc2)cc1 (stereo not shown) [Example 3] | 5.11 | – | – |
| Cc1ccccc1C1=NC(c2ccc(F)cc2)CC1 (stereo not shown) [Example 31] | 1.41 | – | – |
| Clc1ccccc1C1=NC(c2ccc(Br)cc2)CC1 (stereo not shown) [Example 89] | 2.76 | 4.36 | – |
| Fc1ccc(C2CCC(c3ccccc3Br)=N2)cc1 (stereo not shown) [Example 99] | 2.18 | – | – |
| O=C1CCC(c2ccc(Cl)cc2)N1 (stereo not shown) [Example V-11] | – | – | chromatographic logP [3]: 1.61 |
| CC(=O)c1ccc(C2CCC(c3ccccc3Cl)=N2)cc1 (stereo not shown) [Example 75] | 1.88 | 3.06 | – |
| Cc1cc(OC(F)(F)F)ccc1-c1ccc(C2CCC(c3c(F)cccc3F)=N2)cc1 (stereo not shown) [Example 111] | 4.55 | – | – |
| Fc1cccc(F)c1C1=NC(c2ccc(OCc3ccc(C(F)(F)F)cc3)cc2)CC1 (stereo not shown) [Example 108] | 3.41 | – | – |
| FC(F)(F)Oc1ccc(-c2ccc(C3CCC(c4ccc(Cl)cc4Cl)=N3)cc2)cc1 (stereo not shown) [Example 8] | 5.69 | – | – |
| Fc1ccc(C2CCC(c3ccccc3Cl)=N2)c(F)c1 (stereo not shown) [Example 60] | 2.9 | 3.96 | – |
| Cc1ccc(C2CCC(c3ccccc3Cl)=N2)c(C)c1 (stereo not shown) [Example 71] | 2.82 | 4.45 | – |
| CC(C)(C)c1ccc(C2CCC(c3ccccc3Br)=N2)cc1 (stereo not shown) [Example 26] | 3.36 | 5.21 | – |
| Fc1ccccc1C1=NC(c2ccccc2)CC1 (stereo not shown) [Example 76] | 1.16 | 3.45 | – |
| Cc1ccccc1C1=NC(c2ccc(Cl)cc2C)CC1 (stereo not shown) [Example 30] | 2.06 | 4.79 | – |
| FC(F)(F)Oc1ccc(C2CCC(c3ccccc3Cl)=N2)cc1 (stereo not shown) [Example 41] | – | 4.5 | – |
| Cc1cc(Cl)ccc1C1CCC(c2ccccc2Br)=N1 (stereo not shown) [Example 29] | 3.55 | 4.63 | – |
| Brc1ccc(C2CCC(c3ccccc3Br)=N2)cc1 (stereo not shown) [Example 98] | 3.11 | – | – |

| Compound | chromatographic logP [1] | chromatographic logP [2] | also measured |
| --- | --- | --- | --- |
| Brc1ccc(C2=NC(c3ccccc3)CC2)cc1 (stereo not shown) [Example 72] | 1.59 | 4.06 | – |
| Cc1cc(Cl)ccc1C1CCC(c2cc(Cl)ccc2Cl)=N1 (stereo not shown) [Example 61] | 5.03 | 5.33 | – |
| Fc1ccccc1C1=NC(c2ccc(C3CCCCC3)cc2)CC1 (stereo not shown) [Example 79] | 2.86 | 5.95 | – |
| CC(C)Oc1cc(-c2ccccc2)ccc1C1CCC(c2ccccc2Cl)=N1 (stereo not shown) [Example 103] | 3.26 | – | – |
| Fc1ccc(C2CCC(c3ccccc3F)=N2)cc1F (stereo not shown) [Example 63] | 1.74 | 3.74 | – |
| Fc1cccc(F)c1C1=NC(c2ccc(SCc3ccc(Cl)cc3)cc2)CC1 (stereo not shown) [Example 59] | 2.88 | – | – |
| FC(F)(F)Sc1ccc(-c2ccc(C3CCC(c4ccc(Cl)cc4Cl)=N3)cc2)cc1 (stereo not shown) [Example 19] | 6.19 | – | – |
| Fc1ccc(C2CCC(c3cccc(Cl)c3)=N2)cc1 (stereo not shown) [Example 33] | 1.98 | 4.05 | – |
| Oc1ccc(C2CCC(c3c(F)cccc3F)=N2)cc1 (stereo not shown) [Example 106] | 0.91 | – | – |
| Fc1ccccc1C1=NC(c2ccc(Br)cc2)CC1 (stereo not shown) [Example 97] | 1.83 | – | – |
| Fc1cccc(F)c1C1=NC(c2ccccc2)CC1 (stereo not shown) [Example 93] | 1.75 | – | – |
| Cc1ccc(C2CCC(c3ccccc3Br)=N2)cc1 (stereo not shown) [Example 81] | 2.17 | 4.07 | – |
| Cc1cc(Cl)ccc1C1CCC(c2ccccc2Cl)=N1 (stereo not shown) [Example 28] | 3.18 | 4.62 | – |
| C=CCOc1ccc(C2CCC(c3ccccc3F)=N2)cc1 (stereo not shown) [Example 10] | 1.63 | – | – |
| Fc1cccc(F)c1C1=NC(c2ccc(OCc3ccc(Cl)cc3)cc2)CC1 (stereo not shown) [Example 107] | 3.26 | – | – |
| FC(F)(F)Oc1ccc(C2CCC(c3ccccc3Br)=N2)cc1 (stereo not shown) [Example 53] | – | – | logP [3]: 3.63^a) |
| Cc1ccc(C2CCC(c3ccccc3Br)=N2)c(Cl)c1 (stereo not shown) [Example 47] | 3.98 | 4.88 | – |
| Clc1ccccc1C1=NC(c2ccc(C3CCCCC3)cc2)CC1 (stereo not shown) [Example 67] | – | 6.04 | – |
| Clc1ccc(C2=NC(c3ccccc3)CC2)cc1Cl (stereo not shown) [Example 44] | 2.68 | 4.59 | – |

| Compound | chromatographic logP [1] | chromatographic logP [2] | also measured |
| --- | --- | --- | --- |
| CCOc1cc(C(C)(C)C)ccc1C1CCC(=O)N1 (stereo not shown) [Example V-3, 5-(4-tert-butyl-2-ethoxyphenyl)-2-pyrrolidinone] | 2.84 | – | – |
| Fc1ccc(C2CCC(c3cc(Cl)ccc3Cl)=N2)cc1 (stereo not shown) [Example 51] | 3.79 | 4.36 | – |
| CC(C)Sc1ccc(C2CCC(c3c(F)cccc3F)=N2)cc1 (stereo not shown) [Example 36] | 2.18 | – | – |
| Fc1ccc(C2CCC(c3ccc(Cl)cc3)=N2)cc1 (stereo not shown) [Example 34] | 1.63 | 3.99 | – |
| CC(C)c1ccc(C2CCC(=O)N2)cc1 (stereo not shown) [Example V-5] | 2.13 | – | – |
| CCOC(=O)Oc1ccc(-c2ccc(C3CCC(c4ccccc4Cl)=N3)cc2)cc1 (stereo not shown) [Example 96] | 3.14 | – | – |
| COc1ccc(C2CCC(c3ccccc3Br)=N2)cc1F (stereo not shown) [Example 43] | 2.22 | – | – |
| Clc1ccc(C2CCC(c3ccccc3Br)=N2)cc1 (stereo not shown) [Example 83] | 2.96 | 4.22 | – |
| FC(F)(F)Oc1ccc(C2=NC(c3ccccc3)CC2)cc1 (stereo not shown) [Example 66] | 2.02 | 4.26 | – |
| CC(=O)c1ccc(C2CCC(c3ccccc3Br)=N2)cc1 (stereo not shown) [Example 84] | 2.14 | 3.09 | – |
| Fc1ccccc1C1=NC(c2ccc(OC(F)(F)F)cc2)CC1 (stereo not shown) [Example 68] | – | 4.41 | – |
| Fc1ccc(F)c(C2=NC(c3ccc(-c4ccc(SC(F)(F)F)cc4)cc3)CC2)c1F (stereo not shown) [Example 115] | 5.46 | – | – |
| FC(F)(F)Oc1ccc(C2=NC(c3cccc(Cl)c3)CC2)cc1 (stereo not shown) [Example 105] | 4.87 | – | – |
| Fc1cc(F)c(C2=NC(c3ccc(-c4ccc(OC(F)(F)F)cc4)cc3)CC2)c(F)c1 (stereo not shown) [Example 117] | 4.57 | – | – |
| CC(C)c1ccc(C2CCC(c3ccccc3Br)=N2)cc1 (stereo not shown) [Example 23] | 3.06 | – | – |
| CC(C)(C)c1ccc(C2CCC(=O)N2)cc1 (stereo not shown) [Example V-4] | 1.9 | – | – |
| CC(C)Oc1ccc(C2CCC(c3c(F)cccc3F)=N2)cc1 (stereo not shown) [Example 110] | 2.14 | – | – |
| Cc1ccccc1C1=NC(c2ccccc2)CC1 (stereo not shown) [Example 94] | 1.29 | 3.7 | – |

Continued, in another order:

| chromatographic logP [1] | chromatographic logP [2] | Compound | also measured |
| --- | --- | --- | --- |
| 1.92 | – | Cc1ccc(C2CCC(=O)N2)cc1Cl (stereo not shown) [Example V-12] | – |
| 3.28 | – | CC(C)(C)OC(=O)N1C(=O)CCC1c1ccc(OC(F)(F)F)cc1 (stereo not shown) [III-1, tert-butyl 2-oxo-5-[4-(trifluoromethoxy)phenyl]-1-pyrrolidinecarboxylate] | – |
| 1.47 | – | O=C1CCC(c2ccc(-c3ccc(O)cc3)cc2)N1 (stereo not shown) [Example V-18] | – |
| 0.55 | – | O=C1CCC(c2ccc(O)cc2)N1 (stereo not shown) [Example V-19] | – |
| 3.3 | – | Cc1ccc(C2CCC(=O)N2C(=O)OC(C)(C)C)cc1Cl (stereo not shown) [III-14] | – |
| 1.59 | – | O=C1CCC(c2ccc(SC(F)(F)F)cc2)N1 (stereo not shown) [Example V-25] | – |
| 4.71 | – | CC(C)(C)OC(=O)N1C(=O)CCC1c1ccc(C2CCCCC2)cc1 (stereo not shown) [III-18] | – |
| 2.43 | – | COc1ccc(C2CCC(=O)N2C(=O)OC(C)(C)C)cc1F (stereo not shown) [III-7] | – |
| 4.17 | – | CC(C)Oc1ccc(-c2ccc(C3CCC(=O)N3C(=O)OC(C)(C)C)cc2)cc1 (stereo not shown) [III-23] | – |
| 1.29 | – | COc1ccc(C2CCC(=O)N2)cc1F (stereo not shown) [Example V-9] | – |
| 4.67 | – | CC(C)(C)OC(=O)N1C(=O)CCC1c1ccc(-c2ccc(SC(F)(F)F)cc2)cc1 (stereo not shown) [III-3] | – |
| 1.52 | – | Cc1ccc(C2CCC(=O)N2)cc1 (stereo not shown) [Example V-14] | – |
| 2.84 | 2.83 | CSc1ccc(C2CCC(=O)N2C(=O)OC(C)(C)C)cc1 (stereo not shown) [III-15] | – |
| – | 5.05 | Cc1ccccc1C(=O)C1CC(c2ccc(C(C)C)cc2)N(C(=O)OC(C)(C)C)C1=O (stereo not shown) [II-5] | – |
| 3.24 | – | O=C1CCC(c2ccc(-c3ccc(SC(F)(F)F)cc3)cc2)N1 (single isomer, unassigned; isomer 5) [V-2 para isomer, 5-{4′-[(trifluoromethyl)thio]-1,1′-biphenyl-4-yl}-2-pyrrolidinone] | – |
| 2.43 | – | COc1ccc(C2CCC(=O)N2C(=O)OC(C)(C)C)cc1 (stereo not shown) [III-8] | – |
| 2.69 | – | CC(C)(C)Sc1ccc(C2CCC(=O)N2)cc1 (stereo not shown) [Example V-26] | – |
| 2.77 | – | CC(C)Oc1ccc(-c2ccc(C3CCC(=O)N3)cc2)cc1 (stereo not shown) [Example V-21] | – |
| 3.65 | – | CC(C)c1ccc(C2CCC(=O)N2C(=O)OC(C)(C)C)cc1 (stereo not shown) [III-5] | – |
| 3.92 | – | CC(C)(C)OC(=O)N1C(=O)CCC1c1ccc(C(C)(C)C)cc1 (stereo not shown) [III-4] | – |
| 4.93 | – | CC(C)(C)OC(=O)N1C(=O)CCC1c1ccc(-c2ccc(OCc3ccc(Cl)cc3)cc2)cc1 (stereo not shown) [III-24] | – |
| 4.26 | – | CC(C)(C)OC(=O)N1C(=O)CCC1c1ccc(-c2ccc(Br)cc2)cc1 (stereo not shown) [III-27] | – |
| 2.02 | – | O=C1CCC(c2ccc(Cl)cc2Cl)N1 (stereo not shown) [Example V-8] | – |
| 3.24 | 3.25 | Cc1cc(Cl)ccc1C1CCC(=O)N1C(=O)OC(C)(C)C (stereo not shown) [III-6] | – |
| 2.9 | – | Cc1ccc(C2CCC(=O)N2C(=O)OC(C)(C)C)cc1 (stereo not shown) [III-20] | – |
